Measured values taken from patent publication US20240092814A1, “WATER-SOLUBLE Pd(II) COMPLEX, METHOD FOR SYNTHESIZING SAME, AND USE THEREOF AS [sequence] PRECURSOR” (priority 2022, published 2024).
Like-named read-outs stand apart in the source and are kept apart here.

Experiments:
[1] = background statement; cited from earlier work
[2] = Stability of aqueous solution (colour change, precipitation); assay type: physicochemical
From the text: (§1) The pH of the solution at a concentration of 100 g/L is about 4-5.

[3] = pH of aqueous solution; assay type: physicochemical; conditions: concentration of 100 g/L
From the text: as §1

[4] = Solubility in pure water at room temperature; assay type: physicochemical
From the text: as §1

[5] = Solid-state stability and thermal decomposition (TG-DTA); assay type: physicochemical
Procedure: (3) Its solid state is stable at room temperature. In the simulated air atmosphere and nitrogen, a thermal decomposition reaction can occur at a lower temperature (<190° C.) to generate palladium metal (see FIG. 2 and FIG. 3), which can reduce energy consumption in the thermal reduction or calcination process of catalyst preparation. Moreover, the decomposition products are Pd, CO2, N2 and H2O, facilitating clean production and environmental protection.
FIG. 2: a thermogravimetric curve (TG-DTA) of (NH4)2[Pd(NO2)2(C2O4)]·2H2O of the present disclosure in simulated air.
FIG. 3: a thermogravimetric curve (TG-DTA) of (NH4)2[Pd(NO2)2(C2O4)]·2H2O of the present disclosure in nitrogen.

In the case of `O=[N+]([O-])[O-].O=[N+]([O-])[O-].[Pd+2]` [Palladium nitrate solution, palladium nitrate], the stability in water [1] is listed as “unstable in water”.
For `O=C1[O][Pd]([N+](=O)[O-])([N+](=O)[O-])[O]C1=O` [Pd-X6, ammonium dinitrooxalato palladium(II)], the stability in water ([2]; 60° C. for 5 hours) was “color of the solution does not change and no precipitation is observed”, the stability in water ([2]; room temperature for 2 days) was “color of the solution does not change and no precipitation is observed” and the “pH of the solution” value [3] was 4-5. For the same molecule, the solubility [4] was over 400 mg/mL, the “solubility in pure water, equivalent Pd” value [4] was over 120 g Pd/L and the solid state stability ([5]; room temperature) was “stable”. The “thermal decomposition temperature to palladium metal” value ([5]; simulated air atmosphere and nitrogen) was under 190 °C.
In the case of `O.O.O=C([O-])C(=O)[O-].O=C([O-])C(=O)[O-].[NH4+].[NH4+].[Pd+2]` [(NH4)2[Pd(C2O4)2]·2H2O, ammonium bis(oxalato)palladium(II) dihydrate, reference compound], the stability ([5]; room temperature, self-redox reaction producing palladium metal) is reported as “unstable”.
